{
  "source": "patent US7883874B2",
  "about": "“Galactooligosaccharide composition and the preparation thereof” (Clasado Inc., priority 2003, dated 2011)",
  "assay": "Case study 1, inflammatory bowel disease (ulcerative colitis)",
  "format": "in vivo, human",
  "conditions": "same patient, used previously",
  "excerpt": "A patient with diagnosed ulcerative colitis (one of 2 major forms of IBD) is cited as a case study on the effects of the GOS product, prepared according to Example 1 The patient had suffered from ulcerative colitis for 5 years and was free of medication prior to, and during, the test period. […] The patient had difficulty in digesting foods, was on a standard diet, suffered from nausea, diarrhoea and abdominal pain. The latter was left side large intestine, which correlated with the diagnosis of colitis based inflammation of the descending colon. A total daily GOS dose of 7 g/d (in 2 separate doses) was ingested. Within 4 days of intake, symptoms began to improve. The patient was better able to digest their diet, gut pains began to recede and nausea was reduced. […] The only change to the diet was the addition of GOS. Six weeks later, this effect has been maintained.",
  "data": [
    {"smiles": "O=C(O)c1cc(/N=N/c2ccc(S(=O)(=O)Nc3ccccn3)cc2)ccc1O", "note": "[sulphasalazine]", "values": [
      {"measurement": "effect of earlier treatment on ulcerative colitis", "result": "no positive effect"}
    ]}
  ]
}
